Source: patent EP0359454B1, “CC-1065 analogs having two CPI subunits” (PHARMACIA & UPJOHN COMPANY, priority 1988, dated 1990)
In brackets after ≈: the same amount, converted by molar mass.

Tests used:
L-1210 Leukemia = experiment: L-1210 leukemia in vivo, IV drug vs IP tumor, dosed on day 1; design: species or system Male BDF1 mice; details: for OD (optimum dose): i.v. dose on day 1
Description: (§1) Table 3 presents data comparing [S-(R*,R*)]-6,6′-[carbonylbis(imino-1H-indole-5,2-dicarbonyl)]bis[8-chloromethyl)-3,6,7,8-tetrahydro-1-methyl-benzo[1,2-b:4,3-b′]dipyrrol-4-ol (Compound 1) with (7bR)-N-[2-[(4,5,8,8a-tetrahydro-7-methyl-4-oxocyclopropa-[C]pyrrolo[3,2-e]indol-2(1H)0yl)carbonyl]-1H-indol-5-yl]-2-benzofurancarboxamide (U-73,975) in the other murine systems where the compounds have been run jointly.
(§2) The results set forth in Tables 1 and 4 were obtained using standard well known procedures (In Vivo Cancer, Models, NIH Publication No. 84-2635, 1984).
(§3) T/C refers to median life span of treated mice divided by median life span of control mice times 100.

L-1210 i.p. = L-1210 i.p. tumor, i.p. dose on days 1,5,9; type: in vivo, murine; details: for OD (optimum dose): i.p. dose on days 1,5,9; for cures: i.p. dose on days 1,5,9, at optimum dose, survival 30 days = cured
Description: as §1, §2, §3

L-1210 sc = L-1210 sc tumor, i.p. dose on day 1; type: in vivo, murine; details: for OD (optimum dose) / cures: L-1210 sc; for OD (optimum dose): i.p. dose 1 on day 1; for cures: i.p. dose 1 on day 1, at optimum dose, survival 30 days = cured
Description: as §1, §2, §3

B-16 i.p. = B-16 i.p. tumor, i.v. dose on day 1; type: in vivo, murine; details: for OD (optimum dose): i.v. dose on day 1; for T/C: i.v. dose on day 1, at optimum dose
Description: The compounds of Formula I are particularly useful as antitumor agents. […] These murine test systems are predictive for clinically useful human antitumor agents (see, for examle, A. Geldin et al, European J. Cancer, Vol. 17, pp 129-142, 1981; J.M. Vendetti, Cancer Treatment Reports, Vol. 67, pp. 767-772, 1983; and J.M. Vendetti et al, Advances in Pharmacology and Chemotherapy, Vol. 20, pp. 1-20, 1984), and, therefore, the compounds of the subject invention (Formula I) will be useful in the control and treatment of susceptible neoplastic (cancer) diseases, including susceptible leukemics, in humans when given, for example, intravenously in doses of 0.001 µg/kg to about 10 mg/kg of body weight per day, the exact dose depending on the age, weight, and condition of the patient, and on the frequency of administration.
as §1, §3

Lewis Lung i.v. = Lewis Lung i.v. tumor, i.v. dose on days 1,5,9; type: in vivo, murine; details: for OD (optimum dose): i.v. dose on days 1,5,9; for T/C: i.v. dose on days 1,5,9, at optimum dose
Description: as §1, §3

[1] = Delayed death in animals without tumor; type: in vivo, murine; details: NO TUMOR
Description: as §1

L1210 leukemia cells = experiment: In vitro L1210 cell growth inhibition; type: cell-based, murine; details: Mus musculus, concentration of drug which inhibits cell growth 50%, read-out: ID50 (the source's name)
Description: as §1

[2] = in vitro and in vivo, depending upon the particular test system; cited from earlier work

Row | SMILES | Best T/C (L-1210 Leukemia; IV drug vs IP tumor, dosed on day 1, T/C = median survival treated/control x 100, each value at the dose (1-600 µg/kg)) | OD (optimum dose) (L-1210 Leukemia; L-1210 i.p.) [mg/kg] | Best T/C (L-1210 Leukemia; L-1210 i.p., i.v. dose on day 1, at optimum dose) | OD (optimum dose) (L-1210 i.p.) [mg/kg] | cures (L-1210 i.p.) | OD (optimum dose) (L-1210 sc) [mg/kg] | cures (L-1210 sc) | OD (optimum dose) (B-16 i.p.) [mg/kg] | T/C (B-16 i.p.) | OD (optimum dose) (Lewis Lung i.v.) [mg/kg] | T/C (Lewis Lung i.v.) | Delayed death [1] | Delayed death ([1]; listed as U-73-975) | cures (L-1210 Leukemia; IV drug vs IP tumor, dosed on day 1, animals surviving 30 days are considered cured, at the dose (µg/kg)) | cures (L-1210 Leukemia; L-1210 i.p., i.v. dose on day 1, at optimum dose, animals which survive 30 days are considered cured) | In vivo L1210 activity (in words) (L-1210 Leukemia; at 15 µg/kg) | IC50 (L1210 leukemia cells) [ng/mL] | Activity compared with U-73,975 (in words) (L-1210 sc; subcutaneous L1210 assay, over several dose ranges) | Delayed death ([1]; listed as Cpd 1) | factor by which less potent than CC-1065 [2]
1 | Cc1c[nH]c2c1[C@@]13C[C@@H]1CN(C(=O)c1cc4cc(NC(=O)c5cc6ccccc6o5)ccc4[nH]1)C3=CC2=O [U-73,975, (7bR)-N-[2-[(4,5,8,8a-tetrahydro-7-methyl-4-oxocyclopropa-[C]pyrrolo[3,2-e]indol-2(1H)0yl)carbonyl]-1H-indol-5-yl]-2-benzofurancarboxamide, reference compound] | 213 | 0.1 | 213 | 0.02 | (4/6) | 0.1 | (4/6) | 0.1 | 160 | 0.025 | 147 | not to cause delayed death | No Delayed Death | – | – | – | – | – | – | –
2 | Cc1c[nH]c2c(O)cc3c(c12)[C@H](CCl)CN3C(=O)c1cc2cc(NC(=O)Nc3ccc4[nH]c(C(=O)N5C[C@@H](CCl)c6c5cc(O)c5[nH]cc(C)c65)cc4c3)ccc2[nH]1 [Compound 1, [S-(R*,R*)]-6,6′-[carbonylbis(imino-1H-indole-5,2-dicarbonyl)]bis[8-chloromethyl)-3,6,7,8-tetrahydro-1-methylbenzo[1,2-b:4,3-b′]dipyrrol-4-ol] | – | 0.01 to 0.015 | – | 0.004 | (3/6) | 0.01 to 0.025 | (6/6) | 0.015 | 167 | 0.004 | 168 | not to cause delayed death | – | 4/6 cures | (4/6) | highly curative | 0.001 (≈ 0.00123 nM) | superior activity | No Delayed Death | –
3 | COc1c(O)c2c(c3cc(C(=O)N4CCc5c4c(O)c(OC)c4[nH]c(C(=O)N6CC(COC(C)=O)c7c6cc(O)c6[nH]cc(C)c76)cc54)[nH]c13)CCN2C(N)=O (stereo not drawn) [AAP, 7-[[7-[[1-[(acetyloxy)methyl]-1,6-dihydro-5-hydroxy-8-methylbenzo[1,2-b:4,3-b′]dipyrrol-3(2H)-yl]carbonyl]-1,6-dihydro-4-hydroxy-5-methoxybenzo[1,2:4,3-b′]-dipyrrol-3(2H)-yl]carbonyl]-1,6-dihydro-4-hydroxy-5-methoxy-benzo[1,2-b:4,3-b′]dipyrrole-3(2H)-carboxamide] | – | – | – | – | – | – | – | – | – | – | – | – | – | – | – | – | – | – | – | 10^3 to 10^4
